Measured values from patent US20250188069A1, “COMPOUNDS AND METHODS FOR DEGRADING CASEIN KINASE 1 ALPHA” (PIN THERAPEUTICS, INC., priority 2022, published 2025).
Counter-ions that a name gives are not always drawn. Like-named read-outs stand apart in the source and are kept apart here.

Tests used:
MV-4-11 cells = assay: AML cell viability assay (RealTime-Glo); type: cell-based; conditions: Homo sapiens, read-out: Cell viability classification
CK1α = CK1α (Homo sapiens, UniProt P48729+Q96SW2); assay: CK1α degradation, flow cytometry in MV4-11 cells; type: cell-based; parameters: CK1α levels were determined in MV-4-11 cells using Jess (Protein Simple); host or cells: MV-4-11; conditions: % reduction of CK1α compared to DMSO, MV4-11 cells at 316 nM for 16 hours, read-out: CK1α degradation classification
Description: MV-4-11 cells were obtained from ATCC and grown in IMDM supplemented with 10% FBS. The cells were maintained at 37° C. under 5% CO2.
Compounds of the present disclosure were added to cells (final DMSO concentration of 0.5%) and incubated for 16 hours. CK1α level was determined in MV4-11 cells using flow cytometry (Luminex, Guava EasyCyte Plus). Briefly, cells were prepared with sequential 10% formalin and 70% methanol fixation. […] GuavaSoft Incyte software was used to analyse the flow cytometry data. Protein levels relative to DMSO are calculated for CK1α.
The efficacy of CK1α degradation of other part of compounds of the present disclosure was determined by treating MV4-11 cells at […] (Final DMSO concentration of 0.5%) for 16 hours. Protein levels relative to DMSO are calculated for CK1α.
Protein levels relative to DMSO are calculated for CK1α.

[1] = MV4-11, IC50 class, MV-4-11 cells, RealTime-Glo after 44 hrs of treatment (TABLE 3)
[2] = MV4-11, IC50 class, MV-4-11 cells, RealTime-Glo after 44 hrs of treatment (TABLE 5)

Sequence of CK1α (P48729 whole entry): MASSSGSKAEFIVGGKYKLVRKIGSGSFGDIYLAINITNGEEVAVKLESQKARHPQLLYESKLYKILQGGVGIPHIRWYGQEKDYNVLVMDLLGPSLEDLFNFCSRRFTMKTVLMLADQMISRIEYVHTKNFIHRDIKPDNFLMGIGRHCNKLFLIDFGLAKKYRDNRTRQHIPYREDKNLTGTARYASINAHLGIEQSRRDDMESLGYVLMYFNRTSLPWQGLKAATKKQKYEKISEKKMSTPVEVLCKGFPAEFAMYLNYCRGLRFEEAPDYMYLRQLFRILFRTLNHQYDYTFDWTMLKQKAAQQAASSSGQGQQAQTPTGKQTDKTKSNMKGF
Sequence of CK1α (Q96SW2 whole entry): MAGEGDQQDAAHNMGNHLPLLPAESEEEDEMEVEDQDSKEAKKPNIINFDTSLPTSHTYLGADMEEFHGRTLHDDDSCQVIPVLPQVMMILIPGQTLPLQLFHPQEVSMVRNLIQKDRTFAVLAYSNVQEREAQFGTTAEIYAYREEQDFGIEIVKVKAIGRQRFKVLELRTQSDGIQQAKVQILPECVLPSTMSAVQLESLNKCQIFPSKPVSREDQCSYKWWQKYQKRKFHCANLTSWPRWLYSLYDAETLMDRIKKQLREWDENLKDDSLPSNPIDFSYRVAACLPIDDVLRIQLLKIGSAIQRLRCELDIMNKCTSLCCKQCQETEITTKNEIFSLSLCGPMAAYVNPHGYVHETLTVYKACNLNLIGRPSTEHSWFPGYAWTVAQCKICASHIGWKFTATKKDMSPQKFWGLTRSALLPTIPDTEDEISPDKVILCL
Sequence of CK1α (Q16531 whole entry partner): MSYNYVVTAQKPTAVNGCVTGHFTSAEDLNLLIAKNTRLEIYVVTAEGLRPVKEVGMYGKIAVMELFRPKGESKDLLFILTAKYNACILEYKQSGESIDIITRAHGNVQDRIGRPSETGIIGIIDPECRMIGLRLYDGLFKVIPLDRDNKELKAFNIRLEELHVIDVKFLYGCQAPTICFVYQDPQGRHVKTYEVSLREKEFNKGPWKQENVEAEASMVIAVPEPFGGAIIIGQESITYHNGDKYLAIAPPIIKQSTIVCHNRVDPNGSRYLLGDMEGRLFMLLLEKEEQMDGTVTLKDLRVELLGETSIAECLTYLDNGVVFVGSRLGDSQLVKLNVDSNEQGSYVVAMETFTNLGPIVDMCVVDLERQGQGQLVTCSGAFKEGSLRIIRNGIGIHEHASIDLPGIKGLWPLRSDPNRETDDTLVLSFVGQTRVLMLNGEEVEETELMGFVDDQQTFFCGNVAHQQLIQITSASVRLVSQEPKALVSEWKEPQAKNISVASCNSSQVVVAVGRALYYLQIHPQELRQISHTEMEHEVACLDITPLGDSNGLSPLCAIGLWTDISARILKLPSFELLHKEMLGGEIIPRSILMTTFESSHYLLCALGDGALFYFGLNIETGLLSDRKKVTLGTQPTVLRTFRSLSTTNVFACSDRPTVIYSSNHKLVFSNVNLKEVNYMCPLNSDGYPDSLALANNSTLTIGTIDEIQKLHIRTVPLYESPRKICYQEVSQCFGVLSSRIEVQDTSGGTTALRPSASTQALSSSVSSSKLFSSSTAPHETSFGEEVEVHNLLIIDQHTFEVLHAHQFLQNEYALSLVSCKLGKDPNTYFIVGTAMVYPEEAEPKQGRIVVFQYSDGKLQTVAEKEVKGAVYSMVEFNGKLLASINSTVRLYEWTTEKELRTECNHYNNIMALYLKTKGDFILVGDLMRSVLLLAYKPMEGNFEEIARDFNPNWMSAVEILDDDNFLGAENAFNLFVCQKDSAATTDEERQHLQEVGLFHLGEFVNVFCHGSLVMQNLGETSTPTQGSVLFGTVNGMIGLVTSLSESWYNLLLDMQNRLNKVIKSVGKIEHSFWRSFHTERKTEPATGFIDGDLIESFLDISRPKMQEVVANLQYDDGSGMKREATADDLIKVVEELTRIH

Row | Structure (SMILES) | Dmax at 0.316 µM (CK1α) [%] | IC50 (MV-4-11 cells; [1]) [nM] | also measured
1 | CCCCCN(c1cccc2c1CN(C1CCC(=O)NC1=O)C2=O)[C@H]1CC[C@H](NC)CC1 (stereo partly drawn) [Compound 169, 3-(4-(((1R,4R)-4-(methylamino)cyclohexyl)(pentyl)amino)-1-oxoisoindolin-2-yl)piperidine-2,6-dione hydrochloride] | > 75 |  | IC50 (MV-4-11 cells; MV4-11, 44 h): < 100 nM
2 | N[C@H]1CC[C@H](N(CC2CC2)c2cccc3c2CN(C2CCC(=O)NC2=O)C3=O)CC1 (stereo partly shown) [Compound 235, 3-(4-(((1r,4r)-4-aminocyclohexyl)(cyclopropylmethyl)amino)-1-oxoisoindolin-2-yl)piperidine-2,6-dione hydrochloride] | > 75 | < 100 | 
3 | CCCCCN(CCCCNCCCC)c1cccc2c1CN(C1CCC(=O)NC1=O)C2=O (stereo not shown) [Compound 166, 3-(4-((4-(butylamino)butyl)(pentyl)amino)-1-oxoisoindolin-2-yl)piperidine-2,6-dione, HCl] | > 75 |  | IC50 (MV-4-11 cells; MV4-11, 44 h): 100 to 1000 nM
4 | N[C@@H]1CC[C@@H](N(CC2CC2)c2cccc3c2CN(C2CCC(=O)NC2=O)C3=O)C[C@H]1F (stereo partly drawn) [Compound 535, 3-(4-(((1R,3R,4R)-4-amino-3-fluorocyclohexyl)(cyclopropylmethyl)amino)-1-oxoisoindolin-2-yl)piperidine-2,6-dione; formic acid] | 50 to 75 | < 100 | 
5 | CCCCCN(CCCCNCCC(C)C)c1cccc2c1CN(C1CCC(=O)NC1=O)C2=O (stereo not shown) [Compound 167, 3-(4-((4-(isopentylamino)butyl)(pentyl)amino)-1-oxoisoindolin-2-yl)piperidine-2,6-dione. HCl] | > 75 | 100 to 1000 | 
6 | NCC(F)(F)CCN(CCC1CC1)c1cccc2c1CN(C1CCC(=O)NC1=O)C2=O (stereo not shown) [Compound 518, 3-(4-((4-amino-3,3-difluorobutyl)(2-cyclopropylethyl)amino)-1-oxoisoindolin-2-yl)piperidine-2,6-dione] | > 75 | 100 to 1000 | 
7 | CC(C)(C)CCN(CCCCN)c1cccc2c1CN(C1CCC(=O)NC1=O)C2=O (stereo not shown) [Compound 223, 3-(4-((4-aminobutyl)(3,3-dimethylbutyl)amino)-1-oxoisoindolin-2-yl)piperidine-2,6-dione] | > 75 | < 100 | 
8 | O=C1CCC(N2Cc3c(cccc3N(CC3CC3)[C@H]3CC[C@H](NC4CC(F)(F)C4)CC3)C2=O)C(=O)N1 (stereo partly shown) [Compound 532, 3-(4-((cyclopropylmethyl)((lr,4r)-4-((3,3-difluorocyclobutyl)amino)cyclohexyl)amino)-1-oxoisoindolin-2-yl)piperidine-2,6-dione] | > 75 | < 100 | 
9 | O=C1CCC(N2Cc3c(cccc3N(CCC3CC3)[C@H]3CC[C@H](NC(CF)CF)CC3)C2=O)C(=O)N1 (stereo partly shown) [Compound 540, 3-{4-[(2-cyclopropylethyl)[(1r,4r)-4-[(1,3-difluoropropan-2-yl)amino]cyclohexyl]amino]-1-oxo-3H-isoindol-2-yl}piperidine-2,6-dione] | 50 to 75 |  | IC50 (MV-4-11 cells; MV4-11, 44 h): 100 to 1000 nM
10 | C/C=C/CCN(CCCCN)c1cccc2c1CN(C1CCC(=O)NC1=O)C2=O (stereo not shown) [Compound 93, (E)-3-(4-((4-aminobutyl)(pent-3-en-1-yl)amino)-1-oxoisoindolin-2-yl)piperidine-2,6-dione hydrochloride] | > 75 | < 100 | 
11 | CCCCCN(c1cccc2c1CN(C1CCC(=O)NC1=O)C2=O)[C@H]1CC[C@H](NC(C)C)CC1 (stereo partly shown) [Compound 310, 3-(4-(((1r,4r)-4-(isopropylamino)cyclohexyl)(pentyl)amino)-1-oxoisoindolin-2-yl)piperidine-2,6-dione, HCl] | 50 to 75 | < 100 | 
12 | CCCCCN(c1cccc2c1CN(C1CCC(=O)NC1=O)C2=O)[C@H]1CCC[C@H](CN)C1 (stereo partly drawn) [Compound 329, 3-(4-(((1S,3S)-3-(aminomethyl)cyclohexyl)(pentyl)amino)-1-oxoisoindolin-2-yl)piperidine-2,6-dione, HCl] | 50 to 75 | 100 to 1000 | 
13 | CCCCCN(c1cccc2c1CN(C1CCC(=O)NC1=O)C2=O)[C@H]1CC[C@H](C(=O)NC)CC1 (stereo partly drawn) [Compound 306, (1R,4R)-4-((2-(2,6-dioxopiperidin-3-yl)-1-oxoisoindolin-4-yl)(pentyl)amino)-N-methylcyclohexane-1-carboxamide] | > 75 | 100 to 1000 | 
14 | CCCCCN(c1cccc2c1CN(C1CCC(=O)NC1=O)C2=O)[C@H]1CC[C@H](NC(C)=O)CC1 (stereo partly shown) [Compound 168, N-((1r,4r)-4-((2-(2,6-dioxopiperidin-3-yl)-1-oxoisoindolin-4-yl)(pentyl)amino)cyclohexyl)acetamide] | > 75 | 100 to 1000 | 
15 | O=C1CCC(N2Cc3c(cccc3N(CCCC(F)(F)F)[C@H]3CC[C@H](NC4COC4)CC3)C2=O)C(=O)N1 (stereo partly shown) [Compound 514, 3-(1-oxo-4-{[(1r,4r)-4-(oxetan-3-ylamino)cyclohexyl](4,4,4-trifluorobutyl)amino}-3H-isoindol-2-yl)piperidine-2,6-dione] | 50 to 75 | 100 to 1000 | 
16 | N[C@H]1CC[C@H](N(CCC2CCOCC2)c2cccc3c2CN(C2CCC(=O)NC2=O)C3=O)CC1 (stereo partly shown) [Compound 240, 3-(4-(((1r,4r)-4-aminocyclohexyl)(2-(tetrahydro-2H-pyran-4-yl)ethyl)amino)-1-oxoisoindolin-2-yl)piperidine-2,6-dione hydrochloride] | < 50 | 100 to 1000 | 
17 | CC(C)CN(c1cccc2c1CN(C1CCC(=O)NC1=O)C2=O)[C@H]1CC[C@H](N)CC1 (stereo partly shown) [Compound 236, 3-(4-(((1r,4r)-4-aminocyclohexyl)(isobutyl)amino)-1-oxoisoindolin-2-yl)piperidine-2,6-dione. HCl] | > 75 | 100 to 1000 | 
18 | O=C1CCC(N2Cc3c(cccc3N(CC3CC3)[C@H]3CC[C@H](NC4COC4)CC3)C2=O)C(=O)N1 (stereo partly shown) [Compound 534, 3-(4-((cyclopropylmethyl)((1r,4r)-4-(oxetan-3-ylamino)cyclohexyl)amino)-1-oxoisoindolin-2-yl)piperidine-2,6-dione] | > 75 | < 100 | 
19 | O=C1CCC(N2Cc3c(cccc3N(CCC3CC3)[C@H]3CC[C@@H](NCC(F)F)CC3)C2=O)C(=O)N1 (stereo partly shown) [Compound 539A, 3-{4-[(2-cyclopropylethyl)[(1r,4r)-4-[(2,2-difluoroethyl)amino]cyclohexyl]amino]-1-oxo-3H-isoindol-2-yl}piperidine-2,6-dione] | > 75 | < 100 | 
20 | NC[C@]1(O)CC[C@H](N(CCCC(F)(F)F)c2cccc3c2CN(C2CCC(=O)NC2=O)C3=O)CC1 (stereo partly shown) [Compound 530, 3-(4-(((1r,4r)-4-(aminomethyl)-4-hydroxycyclohexyl)(4,4,4-trifluorobutyl)amino)-1-oxoisoindolin-2-yl)piperidine-2,6-dione] | < 50 | > 1000 | 
21 | O=C1CCC(N2Cc3c(cccc3N(CCC3CC3)[C@H]3CC[C@@H](N4CCC(F)(F)CC4)CC3)C2=O)C(=O)N1 (stereo partly shown) [Compound 716A, 3-(4-((2-cyclopropylethyl)((1s,4s)-4-(4,4-difluoropiperidin-1-yl)cyclohexyl)amino)-1-oxoisoindolin-2-yl)piperidine-2,6-dione tris(2,2,2-trifluoroacetate)] |  |  | IC50 (MV-4-11 cells; [2]): > 1000 nM
22 | O=C1CCC(N2Cc3c(cccc3N(CCC3CC3)[C@H]3CC[C@H](NCCOC(F)(F)F)CC3)C2=O)C(=O)N1 (stereo partly shown) [Compound 647] |  |  | IC50 (MV-4-11 cells; [2]): < 100 nM
23 | O=C1CCC(N2Cc3c(cccc3N(CCC3CC3)[C@H]3CC[C@H](NCC(F)(F)F)CC3)C2=O)C(=O)N1 (stereo partly shown) [Compound 580, 3-{4-[(2-cyclopropylethyl)[(1r,4r)-4-[(2,2,2-trifluoroethyl)amino]cyclohexyl]amino]-1-oxo-3H-isoindol-2-yl}piperidine-2,6-dione] |  |  | IC50 (MV-4-11 cells; MV4-11, IC50 class, MV-4-11 cells, RealTime-Glo after 44 hrs of treatment (TABLE 4)): > 1000 nM
24 | N[C@H]1CC[C@H](N(CCCC2CCOC2)c2cccc3c2CN(C2CCC(=O)NC2=O)C3=O)CC1 (stereo partly shown) [Compound 345, 3-(4-(((1r,4r)-4-aminocyclohexyl)(3-(tetrahydrofuran-3-yl)propyl)amino)-1-oxoisoindolin-2-yl)piperidine-2,6-dione] |  |  | IC50 (MV-4-11 cells; MV4-11, IC50 class, MV-4-11 cells, RealTime-Glo after 44 hrs of treatment (TABLE 1)): 100 to 1000 nM
25 | NCCCCN(CCCCN)c1cccc2c1CN(C1CCC(=O)NC1=O)C2=O (stereo not shown) [Compound 96, 3-(4-(bis(4-aminobutyl)amino)-1-oxoisoindolin-2-yl)piperidine-2,6-dione dihydrochloride] |  |  | IC50 (MV-4-11 cells; MV4-11, IC50 class, MV-4-11 cells, RealTime-Glo after 44 hrs of treatment (TABLE 2)): 100 to 1000 nM
26 | O=C1CCC(N2Cc3c(cccc3N(CCC3CC3)[C@H]3CC[C@H](N4CC[C@@H](C(F)(F)F)C4)CC3)C2=O)C(=O)N1 (stereo partly drawn) [Compound 713, 3-(4-((2-cyclopropylethyl)((1R,4r)-4-((R)-3-(trifluoromethyl)pyrrolidin-1-yl)cyclohexyl)amino)-1-oxoisoindolin-2-yl)piperidine-2,6-dione bis(2,2,2-trifluoroacetate)] |  |  | IC50 (MV-4-11 cells; [2]): 100 to 1000 nM
